From US20240197874A1, “MATERIALS AND METHODS FOR IMPROVING EFFICACY OF ADOPTIVE IMMUNE CELL THERAPY” (priority 2021, published 2024)

Legend:
mTORC1 [1] = assay: Endosome isolation and in vitro mTORC1 kinase activity assay toward S6K1; assay type: biochemical, human; settings: cells pre-treated 2 hours with 1 μM inhibitor; day 3
[2] = test system: lysosomal cathepsin genes (CTSB, CTSD, CTSH and CTSS); assay: Lysosomal cathepsin gene expression by qRT-PCR; assay type: cell-based, human
Method: FIGS. 6A-6F. Sustained activation of late endosomal mTORC1 suppresses lysosomal activities in naïve CD4 T cell responses. (FIGS. 6A-6F) Naïve CD4 T cells from young (Y) and old (O) individuals were activated for 5 days. Indicated inhibitor or vehicle control was added for the last 2 days of culture (FIGS. 6A-6B and FIGS. 6E-6F). Alternatively, cells were transfected with control or VPS39 siRNA and then activated with anti-CD3/anti-CD28 beads for 5 days (FIGS. 6C-6D). (FIG. 6A, FIG. 6C, FIG. 6E, and FIG. 6F) Lysosomal cathepsins expressions were determined by qRT-PCR (left); results are normalized to control samples using 18S rRNA as internal control; mean+SD of four experiments; comparison by two-tailed paired t-test. Lysosomal activities were determined by flow cytometry-based analysis of cells treated with 5 μg/mL of DQ-BSA for 6 hours. Results are shown as representative histograms (middle) and cumulative data from four experiments (right, two-tailed paired t-test). The gray histogram represents DQ-BSA free samples. […]
Total RNA was isolated using the RNeasy Plus Mini Kit (74134, QIAGEN) and converted to cDNA using the SuperScript VILO cDNA Synthesis Kit (11754, Invitrogen). Quantitative RT-PCR was performed on the ABI 7900HT system (Applied Biosystems) using Power SYBR Green PCR Master Mix (4368706, Thermo Fisher Scientific), according to the manufacturer's instructions.

Naïve CD4 T cells [3] = assay: DQ-BSA lysosomal activity assay in activated naïve CD4 T cells; assay type: cell-based, human
Method: Cells were treated with 5 μg/mL of DQ-BSA (D12050, Thermo Fisher Scientific) diluted in prewarmed medium and incubated at 37° ° C. for 6 hours. Cells were then briefly washed once with ice-cold PBS containing 2% FBS and kept on ice. Fluorescence of cleaved BSA-DQ was analyzed by flow cytometry.

PD-1 = assay type: cell-based, human; settings: T cells from old adults; day 5
Naïve CD4 T cells [4] = assay: Percentage of live cells (Annexin V negative) of activated naïve CD4 T cells with increasing inhibitor doses; assay type: cell-based, human; settings: for toxicity of doses used for lysosome inhibition: chloroquine 20 μM, Bafilomycin A1 10 nM
Method: FIGS. 2A-2H. Naïve CD4 T cells from old adults lose lysosomal function but maintain mTORC1 activity after activation on day 5. (FIG. 2A and FIG. 2B) Naïve CD4 T cells from young and old individuals were activated with anti-CD3/anti-CD28 beads for 5 days followed by DQBSA treatments for 6 hours. Fluorescence of cleaved DQ-BSA was analyzed by flow cytometry to determine lysosome activities (FIG. 2A). Phospho-S6K1 (Thr389) protein expression (right) was determined by Western blotting (FIG. 2B). (FIG. 2C) Naïve CD4 T cells were activated for 5 days in the presence of increasing doses of chloroquine (CQ), bafilomycin A1 (BafA1) or JPH203. The percentage of live cells was determined as the frequency of Annexin V negative population. Mean+SD of four experiments. (FIGS. 2D-2G) Naïve CD4 T cells were activated for 5 days with the last 2-day culture with vehicle, chloroquine (CQ) or bafilomycin A1 (BafA1). Alternatively, cells were transfected with control or TFEB siRNA and activated for 5 days. (FIG. 2D) Lysosomal activities were determined as in (FIG. 2A). (FIG. 2E) mTORC1 activity was determined as in (FIG. 2B). (FIG. 2F) TFEB protein silencing were confirmed by Western blotting on day 5 after activation. (FIG. 2G) AKT phosphorylation was determined by Western blotting on day 5 after activation. **p<0.01; NS, not significant. (FIG. 2H) Naïve CD4 T cells from three old individuals were activated and treated with CQ as in (FIG. 2D). SLC7A5 and c-MYC protein expression were determined. Comparison by two-tailed paired t test. *p<0.05, **p<0.01; NS, not significant.
Isolated human naïve CD4 T cells were activated with Dynabeads Human T-Activator CD3/CD28 (11132D, Thermo Fisher Scientific) in RPMI 1640 (Sigma) supplemented with 10% fetal bovine serum (FBS) and 100 U/mL penicillin and streptomycin (Thermo Fisher Scientific). Mouse T cells were activated in plates coated with 8 μg/mL anti-CD3 Ab (16-0032-82, eBioscience) and 8 μg/mL anti-CD28 Ab (16-0281-82, eBioscience) in culture medium supplemented with 10 ng/ml IL-2 (21212, Peprotech). […]

mTORC1 [5] = assay type: cell-based, human; settings: for S6K1 phosphorylation (mTORC1 activity) under lysosome inhibition: young individuals, day 5, last 2 days with inhibitor
[6] = day 5-activated T cells from old adults
[7] = young individuals, day 5, last 2 days with inhibitor
[8] = CQ and JPH203-cotreated young cells vs CQ alone

Question: For `Cl.Cl.NC1(c2ccc(-c3nc4ccn5c(=O)[nH]nc5c4cc3-c3ccccc3)cc2)CCC1` [AKT inhibitor, MK-2206 2HCl], which “mTORC1 kinase activity of endosome isolates toward the substrate S6K1” value (mTORC1 [1]) is on record?
Answer: The value was “not seen”.

Question: What does the source list for `CCC(=O)N1CCN(c2ccc(-n3c(=O)ccc4cnc5ccc(-c6cnc7ccccc7c6)cc5c43)cc2C(F)(F)F)CC1` [Torin 1]?
Answer: TFEB-dependent transcription of lysosomal cathepsin genes [2, 6]: partially restored; lysosomal proteolytic activities (Naïve CD4 T cells [3]; [6]): partially restored; cell surface protein expression of PD-1 (PD-1): reduced cell surface protein expression; transcripts of PD-1 (PD-1): without effects on transcripts

Question: Which “toxicity of doses used for lysosome inhibition” value (Naïve CD4 T cells [4]) does the source give for `CCN(CC)CCCC(C)Nc1ccnc2cc(Cl)ccc12` (centres unmarked) [chloroquine, Chloroquine] here?
Answer: Its value is “nontoxic”.

Question: What about the lysosomal activities (Naïve CD4 T cells [3]; [7]) of the same compound?
Answer: Its lysosomal activities is “reduced lysosomal activities”.

Question: What about the “S6K1 phosphorylation (mTORC1 activity) under lysosome inhibition” value (mTORC1 [5]) of the same compound?
Answer: The value was “neither reduced S6K1”.

Question: `Nc1cc(COc2c(Cl)cc(C[C@H](N)C(=O)O)cc2Cl)c2oc(-c3ccccc3)nc2c1` [JPH203] was tested. Which lysosomal cathepsins [2, 8] did it give?
Answer: The lysosomal cathepsins was “increased”.

Question: And the “cytotoxicity (percentage of live cells, Annexin V negative)” value (Naïve CD4 T cells [4]; 5 μM, titration experiments, activated naïve CD4 T cells)?
Answer: The value was “not cytotoxic”.

Question: What about the lysosomal activities (Naïve CD4 T cells [3]; [8]) of the same compound?
Answer: Its lysosomal activities is “increased”.

Question: What about the “inhibition of mTORC1 activity” value (mTORC1 [5]; 5 μM, phosphorylation of S6RP, titration experiments) of the same compound?
Answer: Its value is “about 50%”.

Question: And the “mTORC1 activity on day 3” value (mTORC1 [5]; day 3 after activation, young and old cells, 5 μM)?
Answer: Its value is “reduced mTORC1 activity in both young and old cells”.

Question: What about the “excess mTORC1 activity on day 5 in old activated T cells” value (mTORC1 [5]; day 5, old adults, inhibitor for last 2 days, 5 μM) of the same compound?
Answer: The value was “sensitive to SLC7A5 inhibition”.

Question: For `CO/C1=C\C(C)=C\[C@@H](C)[C@@H](O)[C@@H](C)C/C(C)=C/C=C/[C@H](OC)[C@@H]([C@@H](C)[C@@H](O)[C@H](C)[C@@]2(O)C[C@@H](O)[C@H](C)[C@@H](C(C)C)O2)OC1=O` [Bafilomycin A1], which “toxicity of doses used for lysosome inhibition” value (Naïve CD4 T cells [4]) is on record?
Answer: Its value is “nontoxic”.

Question: And the lysosomal activities (Naïve CD4 T cells [3]; [7])?
Answer: Its lysosomal activities is “reduced lysosomal activities”.

Question: What about the “S6K1 phosphorylation (mTORC1 activity) under lysosome inhibition” value (mTORC1 [5]) of the same compound?
Answer: The value was “neither reduced S6K1”.
